The source of these data is paper PMC4106346, “The Oligomeric States of the Purified Sigma-1 Receptor Are Stabilized by Ligands” (The Journal of Biological Chemistry, 2014).

In experiment [1] the target is T1, sigma-1 receptor (S1R) (Cavia porcellus, UniProt Q60492). Put plainly: ligand stabilization of the purified oligomer at […] °C, analytical SEC. In kind it is binding. Set-up: gene SIGMAR1; MBP-4A-S1R, purified oligomer (peak 1).
Experiment [2] concerns the target T2, sigma-1 receptor (S1R) (Cavia porcellus, UniProt Q60492, H97A).
T2 construct: gene SIGMAR1; MBP-4A-S1R
Put plainly: radioligand filtration binding, […] (+)-[3H]pentazocine.

For experiment [3], the target named is T1, sigma-1 receptor (S1R). Put plainly: titration by ligand stabilization of the oligomer, analytical SEC with tryptophan fluorescence. It counts as binding. The arrangement: gene SIGMAR1.
In experiment [4] the target is T1, sigma-1 receptor (S1R). Put plainly: ligand stabilization of the purified oligomer, analytical SEC. It counts as binding. Set-up: gene SIGMAR1; MBP-4A-S1R, purified oligomer (peak 1).

Structures can show the parent of a compound that is named as a salt.

T1 sequence (Q60492 whole entry): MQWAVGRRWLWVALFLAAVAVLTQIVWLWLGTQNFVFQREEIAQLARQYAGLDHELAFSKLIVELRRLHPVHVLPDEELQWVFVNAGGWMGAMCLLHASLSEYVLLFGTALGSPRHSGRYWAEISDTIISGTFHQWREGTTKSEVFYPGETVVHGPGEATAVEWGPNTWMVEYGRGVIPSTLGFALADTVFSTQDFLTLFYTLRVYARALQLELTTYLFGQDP
T2 sequence (Q60492 whole entry H97A): as the sequence (Q60492 whole entry) above, with H97A counted along it

With `c1ccc(CCCCN2CCC(c3ccccc3)CC2)cc1` [4-PPBP, 4-phenyl-1-(4-phenylbutyl)piperidine maleate], the “ligand stabilization of the purified oligomer at 37 °C, analytical SEC” value at sigma-1 receptor (S1R) [1] was “Tight-binding ligands 4-PPBP, BD-1047 and others stabilized the oligomeric states”.

With `CC(C)=CCN1CC[C@]2(C)c3cc(O)ccc3C[C@H]1[C@H]2C` [(+)-pentazocine], the “% of nonmutated binding” value on sigma-1 receptor (S1R) [2] was ~ 50 % of nonmutated binding.

`CN(C)CCN(C)CCc1ccc(Cl)c(Cl)c1` [BD-1047, N-[2-(3,4-dichlorophenyl)ethyl]-N-methyl-2-(dimethylamino)ethylamine dihydrobromide]: the Kd on sigma-1 receptor (S1R) [3] is approximately 7 nM.

Take `CCCCCCCCCCCCC/C=C/[C@@H](O)[C@@H](N)CO` [sphingosine]: the “ligand stabilization of the purified oligomer, analytical SEC” value on sigma-1 receptor (S1R) [4] is listed as “the natural membrane lipid sphingosine gave a stabilizing interaction that was close to that of many of the synthetic ligands”.
